Measured values: PubChem BioAssay (NCI)
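A five-concentration, 48-hour dose response in 96-well plates underlies each endpoint, interpolated linearly between surrounding concentrations. GI50: concentration for 50% inhibition of growth. Definition used: TGI = concentration required for complete inhibition of growth.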

Tests used:
Assay in all cases: growth of human tumour cells (NCI), 48 h
OVCAR-8 ovarian = test system: OVCAR-8 ovarian
MALME-3M melanoma = test system: MALME-3M melanoma
ACHN renal = test system: ACHN renal
UACC-257 melanoma = test system: UACC-257 melanoma
A549 NSCLC = test system: A549 NSCLC
EKVX NSCLC = test system: EKVX NSCLC
HOP-62 NSCLC = test system: HOP-62 NSCLC
CAKI-1 renal = test system: CAKI-1 renal
OVCAR-5 ovarian = test system: OVCAR-5 ovarian
UO-31 renal = test system: UO-31 renal
UACC-62 melanoma = test system: UACC-62 melanoma
COLO 205 colon = test system: COLO 205 colon
U251 CNS = test system: U251 CNS
MDA-MB-435 = test system: MDA-MB-435
HL-60(TB) leukemia = test system: HL-60(TB) leukemia
CCRF-CEM leukemia = test system: CCRF-CEM leukemia
HOP-92 NSCLC = test system: HOP-92 NSCLC
SK-MEL-5 melanoma = test system: SK-MEL-5 melanoma
HCT-116 colon = test system: HCT-116 colon
MDA-MB-231 breast = test system: MDA-MB-231 breast
T-47D breast = test system: T-47D breast
SNB-75 CNS = test system: SNB-75 CNS
HT29 colon = test system: HT29 colon
MOLT-4 leukemia = test system: MOLT-4 leukemia
SK-MEL-2 melanoma = test system: SK-MEL-2 melanoma
PC-3 prostate = test system: PC-3 prostate
NCI-H23 lung = test system: NCI-H23 lung
A498 renal = test system: A498 renal
K-562 leukemia = test system: K-562 leukemia
BT-549 breast = test system: BT-549 breast
SF-268 CNS = test system: SF-268 CNS
SK-MEL-28 melanoma = test system: SK-MEL-28 melanoma
TK-10 renal = test system: TK-10 renal
SN12C renal = test system: SN12C renal
MCF7 breast = test system: MCF7 breast
DU-145 prostate = test system: DU-145 prostate
OVCAR-3 ovarian = test system: OVCAR-3 ovarian
HCT-15 colon = test system: HCT-15 colon
786-0 renal = test system: 786-0 renal
NCI-H226 lung = test system: NCI-H226 lung
RXF 393 renal = test system: RXF 393 renal
SK-OV-3 ovarian = test system: SK-OV-3 ovarian
LOX IMVI melanoma = test system: LOX IMVI melanoma
NCI-H460 lung = test system: NCI-H460 lung
IGROV1 ovarian = test system: IGROV1 ovarian
SR leukemia = test system: SR leukemia
SW-620 colon = test system: SW-620 colon
M14 melanoma = test system: M14 melanoma
SF-295 CNS = test system: SF-295 CNS
SNB-19 CNS = test system: SNB-19 CNS
NCI/ADR-RES ovarian = test system: NCI/ADR-RES ovarian
OVCAR-4 ovarian = test system: OVCAR-4 ovarian
KM12 colon = test system: KM12 colon
SF-539 CNS = test system: SF-539 CNS
HS 578T breast = test system: HS 578T breast
HCC-2998 colon = test system: HCC-2998 colon
RPMI-8226 leukemia = test system: RPMI-8226 leukemia

Nc1cc(-c2ccccc2)ccc1O
GI50 (OVCAR-8 ovarian): > 100 µM | TGI (OVCAR-8 ovarian): > 100 µM | GI50 (MALME-3M melanoma): > 100 µM | TGI (MALME-3M melanoma): > 100 µM | GI50 (ACHN renal): 54.6 µM | TGI (ACHN renal): > 100 µM | GI50 (UACC-257 melanoma): > 100 µM | TGI (UACC-257 melanoma): > 100 µM | GI50 (A549 NSCLC): > 100 µM | TGI (A549 NSCLC): > 100 µM | GI50 (EKVX NSCLC): 82.2 µM | TGI (EKVX NSCLC): > 100 µM | GI50 (HOP-62 NSCLC): > 100 µM | TGI (HOP-62 NSCLC): > 100 µM | GI50 (CAKI-1 renal): 17.9 µM | TGI (CAKI-1 renal): 79.9 µM | GI50 (OVCAR-5 ovarian): > 100 µM | TGI (OVCAR-5 ovarian): > 100 µM | GI50 (UO-31 renal): 34 µM | TGI (UO-31 renal): > 100 µM | GI50 (UACC-62 melanoma): 37.3 µM | TGI (UACC-62 melanoma): > 100 µM | GI50 (COLO 205 colon): > 100 µM | TGI (COLO 205 colon): > 100 µM | GI50 (U251 CNS): > 100 µM | TGI (U251 CNS): > 100 µM | GI50 (MDA-MB-435): > 100 µM | TGI (MDA-MB-435): > 100 µM | GI50 (HL-60(TB) leukemia): 45.4 µM | TGI (HL-60(TB) leukemia): > 100 µM | GI50 (CCRF-CEM leukemia): 23.2 µM | TGI (CCRF-CEM leukemia): > 100 µM | GI50 (HOP-92 NSCLC): > 100 µM | TGI (HOP-92 NSCLC): > 100 µM | GI50 (SK-MEL-5 melanoma): > 100 µM | TGI (SK-MEL-5 melanoma): > 100 µM | GI50 (HCT-116 colon): 54.6 µM | TGI (HCT-116 colon): > 100 µM | GI50 (MDA-MB-231 breast): 7.32 µM | TGI (MDA-MB-231 breast): > 100 µM | GI50 (T-47D breast): 55.3 µM | TGI (T-47D breast): > 100 µM | GI50 (SNB-75 CNS): > 100 µM | TGI (SNB-75 CNS): > 100 µM | GI50 (HT29 colon): > 100 µM | TGI (HT29 colon): > 100 µM | GI50 (MOLT-4 leukemia): 51.9 µM | TGI (MOLT-4 leukemia): > 100 µM | GI50 (SK-MEL-2 melanoma): > 100 µM | TGI (SK-MEL-2 melanoma): > 100 µM | GI50 (PC-3 prostate): 21.6 µM | TGI (PC-3 prostate): > 100 µM | GI50 (NCI-H23 lung): > 100 µM | TGI (NCI-H23 lung): > 100 µM | GI50 (A498 renal): 22.7 µM | TGI (A498 renal): > 100 µM | GI50 (K-562 leukemia): > 100 µM | TGI (K-562 leukemia): > 100 µM | GI50 (BT-549 breast): 79.3 µM | TGI (BT-549 breast): > 100 µM | GI50 (SF-268 CNS): 65.5 µM | TGI (SF-268 CNS): > 100 µM | GI50 (SK-MEL-28 melanoma): > 100 µM | TGI (SK-MEL-28 melanoma): > 100 µM | GI50 (TK-10 renal): > 100 µM | TGI (TK-10 renal): > 100 µM | GI50 (SN12C renal): 68.9 µM | TGI (SN12C renal): > 100 µM | GI50 (MCF7 breast): > 100 µM | TGI (MCF7 breast): > 100 µM | GI50 (DU-145 prostate): 82.3 µM | TGI (DU-145 prostate): > 100 µM | GI50 (OVCAR-3 ovarian): 68.8 µM | TGI (OVCAR-3 ovarian): > 100 µM | GI50 (HCT-15 colon): 68.7 µM | TGI (HCT-15 colon): > 100 µM | GI50 (786-0 renal): > 100 µM | TGI (786-0 renal): > 100 µM | GI50 (NCI-H226 lung): > 100 µM | TGI (NCI-H226 lung): > 100 µM | GI50 (RXF 393 renal): > 100 µM | TGI (RXF 393 renal): > 100 µM | GI50 (SK-OV-3 ovarian): > 100 µM | TGI (SK-OV-3 ovarian): > 100 µM | GI50 (LOX IMVI melanoma): 62.9 µM | TGI (LOX IMVI melanoma): > 100 µM | GI50 (NCI-H460 lung): > 100 µM | TGI (NCI-H460 lung): > 100 µM | GI50 (IGROV1 ovarian): > 100 µM | TGI (IGROV1 ovarian): > 100 µM | GI50 (SR leukemia): 33.9 µM | TGI (SR leukemia): > 100 µM | GI50 (SW-620 colon): > 100 µM | TGI (SW-620 colon): > 100 µM | GI50 (M14 melanoma): > 100 µM | TGI (M14 melanoma): > 100 µM | GI50 (SF-295 CNS): 55.2 µM | TGI (SF-295 CNS): > 100 µM | GI50 (SNB-19 CNS): > 100 µM | TGI (SNB-19 CNS): > 100 µM | GI50 (NCI/ADR-RES ovarian): 45 µM | TGI (NCI/ADR-RES ovarian): > 100 µM | GI50 (OVCAR-4 ovarian): 36.5 µM | TGI (OVCAR-4 ovarian): > 100 µM | GI50 (KM12 colon): 58.4 µM | TGI (KM12 colon): > 100 µM | GI50 (SF-539 CNS): > 100 µM | TGI (SF-539 CNS): > 100 µM

COc1ccc2c(c1)C/C(=C\c1ccc(O)c(OC)c1)C2=O
TGI (OVCAR-8 ovarian): > 100 µM | TGI (ACHN renal): > 100 µM | TGI (A549 NSCLC): > 100 µM | TGI (EKVX NSCLC): > 100 µM | TGI (CAKI-1 renal): > 100 µM | TGI (OVCAR-5 ovarian): > 100 µM | TGI (UO-31 renal): > 100 µM | TGI (HS 578T breast): > 100 µM | TGI (HCC-2998 colon): > 100 µM | TGI (UACC-62 melanoma): > 100 µM | TGI (U251 CNS): > 100 µM | TGI (HL-60(TB) leukemia): > 100 µM | TGI (RPMI-8226 leukemia): > 100 µM | TGI (SNB-75 CNS): > 100 µM | TGI (HT29 colon): > 100 µM | TGI (MOLT-4 leukemia): > 100 µM | TGI (PC-3 prostate): > 100 µM | TGI (NCI-H23 lung): > 100 µM | TGI (A498 renal): > 100 µM | TGI (K-562 leukemia): > 100 µM | TGI (BT-549 breast): > 100 µM | TGI (SF-268 CNS): > 100 µM | TGI (SK-MEL-28 melanoma): > 100 µM | TGI (TK-10 renal): > 100 µM | TGI (SN12C renal): > 100 µM | TGI (MCF7 breast): > 100 µM | TGI (OVCAR-3 ovarian): > 100 µM | TGI (HCT-15 colon): > 100 µM | TGI (786-0 renal): > 100 µM | TGI (NCI-H226 lung): > 100 µM | TGI (SK-OV-3 ovarian): > 100 µM | TGI (LOX IMVI melanoma): > 100 µM | TGI (NCI-H460 lung): > 100 µM | TGI (SR leukemia): > 100 µM | TGI (SW-620 colon): > 100 µM | TGI (M14 melanoma): > 100 µM | TGI (SNB-19 CNS): > 100 µM | TGI (NCI/ADR-RES ovarian): > 100 µM | TGI (OVCAR-4 ovarian): > 100 µM | TGI (SF-539 CNS): > 100 µM
